Source: patent publication US20040258754A1, “Compositions for oral administration of camptothecin and its analogs” (priority 2003, published 2004)
Values after ≈ are worked out from the molar mass of the structure shown. Read-outs that look alike come from different tables or passages of the source.

Legend:
[1] = for Relative Peak Area: 37° C.
[2] = Solubility of camptothecin in formulations with Pluronic P85; assay type: physicochemical; settings: aqueous with cosolvent or surfactant or cyclodextrin, thermodynamic from solid, read-out: Camptothecin concentration (solubility)
Protocol: Calibration. Fluorescence of 0.300 mL samples of camptothecin solutions in methanol containing between 0.00003 and 0.0005 mg/mL, in triplicates on Helma Quarz plate, was measured using Bio-Tek FL600 fluorescence plate reader with excitation filter wavelength/bandwidth 360/40 nm and emission filter 530/25 nm, sensitivity 70. The average fluorescence was fitted to a linear equation and gave: […]
where C—camptothecin concentration [mg/mL].
Solubility. 0.1 mg camptothecin samples, in triplicates, and 1 mL of the respective buffer or carrier solution, were incubated at room temperature with shaking for 1 hour. The samples were then filtered through Acrodisc CR, PTFE Syringe filter, 4 mm diameter, 0.45 μm pore size Gelman part No. 4472. The filtrate was diluted 100 times with methanol, and the final concentration of camptothecin was determined by fluorescence measurement using the above-described calibration.

[3] = cited from earlier work
[4] = Loading (uptake) of drugs into Pluronic-PAA microgels; assay type: physicochemical; settings: 1 wt % microgel suspension pH 7.0
Protocol: The beads were used in order to enhance the area of contact between the microgel suspension and drug. The beads were separated into several fractions. One fraction was added to a polypropylene vial containing the microgel suspension (0.5 mL) and the vial was gently shaken in a horizontal position in an environmental chamber at 20 or 37° C. Then the beads were recovered from the suspension by using a magnet. The beads were dried under vacuum and placed into an appropriate solvent (0.5 mL), where the solute was extracted after shaking overnight. The solvent fraction was assayed for the solute concentration using HPLC. The control fraction of loaded beads was subjected to the extraction without equilibration with the microgel suspension. The solute concentrations were measured in triplicate using the HPLC system described above. […] The peak area was integrated and used to calculate camptothecin concentration using standard calibration curves.

[5] = target: human serum albumin (HSA) (Homo sapiens, UniProt P02768); settings: pH 7.4; cited from earlier work
Chain of human serum albumin (HSA) (P02768 25-609): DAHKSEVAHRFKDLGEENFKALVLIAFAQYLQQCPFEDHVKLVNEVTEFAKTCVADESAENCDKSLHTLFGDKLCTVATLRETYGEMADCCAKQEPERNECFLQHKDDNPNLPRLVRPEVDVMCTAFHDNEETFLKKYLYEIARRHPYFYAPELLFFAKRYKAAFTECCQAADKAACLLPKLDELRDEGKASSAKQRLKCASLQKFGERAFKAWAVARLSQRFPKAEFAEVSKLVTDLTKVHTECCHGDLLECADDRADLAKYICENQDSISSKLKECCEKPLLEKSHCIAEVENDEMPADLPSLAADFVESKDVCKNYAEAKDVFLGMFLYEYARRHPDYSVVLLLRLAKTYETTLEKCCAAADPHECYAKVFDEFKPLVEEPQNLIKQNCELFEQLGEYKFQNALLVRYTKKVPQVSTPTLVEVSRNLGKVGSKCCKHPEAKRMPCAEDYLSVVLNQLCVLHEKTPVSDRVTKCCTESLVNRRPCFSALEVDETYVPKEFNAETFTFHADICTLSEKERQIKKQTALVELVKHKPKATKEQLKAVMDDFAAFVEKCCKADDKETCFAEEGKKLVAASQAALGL

[6] = CPT-11 in human serum Without Gel, exposure 10 min
[7] = CPT-11 loaded in Pluronic-PAA-EGDMA gel (F127-PAA) in human serum, exposure 1 h

SMILES: CCc1c2c(nc3ccc(OC(=O)N4CCC(NCCCCC(=O)O)CC4)cc13)-c1cc3c(c(=O)n1C2)COC(=O)[C@]3(O)CC [APC-L]
- Relative Peak Area [1, 6]: 0.778
- Relative Peak Area [1, 7]: not detected

SMILES: CCc1c2c(nc3ccc(OC(=O)N4CCC(N5CCCCC5)CC4)cc13)-c1cc3c(c(=O)n1C2)COC(=O)[C@]3(O)CC [CPT-11, irinotecan]
- metabolism in human serum without encapsulation into gels ([1]; male, human, 15 min, 0.013 mg/mL): a substantial portion of CPT-11 was metabolised

SMILES: CC[C@@]1(O)C(=O)OCc2c1cc1n(c2=O)Cc2cc3ccccc3nc2-1 [Camptothecin]
- solubility at 1 h ([2]; 1% Pluronic P85 in PBS, P85 1% in PBS pH 7.2, room temperature): 3.1 ± 1.5 µg/mL (≈ 8.9 µM)
- solubility at 1 h ([2]; 3% Pluronic P85 in PBS, P85 3% in PBS pH 7.2, room temperature): 4.9 ± 1.5 µg/mL (≈ 14.1 µM)
- Log P [3]: 0.87
- Uptake ± S.D. ([4]; F127-based gel, 20° C.): 13.4 ± 1.54 (20° C.) μmol/g gel
- Uptake ± S.D. ([4]; F127-based gel, 37° C.): 16.3 ± 1.86 (37° C.) μmol/g gel
- Uptake ± S.D. ([4]; L92-based gel, 20° C.): 16.2 ± 1.87 (20° C.) μmol/g gel
- Uptake ± S.D. ([4]; L92-based gel, 37° C.): 19.5 ± 2.33 (37° C.) μmol/g gel
- higher affinity of HSA for the carboxylate form than for the alpha-hydroxy lactone form [5]: 150 fold

SMILES: CCc1c2c(nc3ccc(O)cc13)-c1cc3c(c(=O)n1C2)COC(=O)[C@]3(O)CC [SN28-L]
- Relative Peak Area [1, 6]: 1.30
- Relative Peak Area [1, 7]: not detected

SMILES: CCc1c2c(nc3ccc(O)cc13)-c1cc(C(O)(CC)C(=O)O)c(CO)c(=O)n1C2 (centres unmarked) [SN28-c]
- Relative Peak Area [1, 6]: 1.18
- Relative Peak Area [1, 7]: not detected

SMILES: CC(=O)O[C@H]1C(=O)[C@@]2(C)[C@H]([C@H](OC(=O)c3ccccc3)[C@]3(O)C[C@H](OC(=O)[C@H](O)[C@@H](NC(=O)c4ccccc4)c4ccccc4)C(C)=C1C3(C)C)[C@]1(OC(C)=O)CO[C@@H]1C[C@@H]2O [Taxol]
- Uptake ± S.D. ([4]; F127-based gel, 20° C.): 2.27 ± 0.90 (20° C.) μmol/g gel
- Uptake ± S.D. ([4]; F127-based gel, 37° C.): 6.97 ± 0.87 (37° C.) μmol/g gel
- Uptake ± S.D. ([4]; L92-based gel, 20° C.): 3.65 ± 0.43 (20° C.) μmol/g gel
- Uptake ± S.D. ([4]; L92-based gel, 37° C.): 7.25 ± 0.74 (37° C.) μmol/g gel

SMILES: C[C@]12CC[C@@H]3c4ccc(O)cc4CC[C@H]3[C@@H]1CC[C@@H]2O [β-Estradiol]
- Log P [3]: 3.86
